# Values of other authors in patent publication US20140170287A1, “METHODS FOR PREPARING AND COMPOSITIONS COMPRISING PLANT SEED-BASED OMEGA-3 FATTY ACIDS” (Living Healthy World LLC, priority 2012, published 2014).
# System: C-reactive protein (CRP)
# Details: consumption of ALA in flaxseeds; CRP as marker of the inflammatory status in the cardiovascular system
compound,measurement,value
"CC/C=C\C/C=C\C/C=C\CCCCCCCC(=O)O [ALA, alpha-linolenic acid]",decrease of blood levels of C-reactive protein (CRP),10-15%
